# Earlier results in patent publication US20090320148A1, “OXYLIPINS FROM STEARIDONIC ACID AND GAMMA-LINOLENIC ACID AND METHODS OF MAKING AND USING THE SAME” (MARTEK BIOSCIENCES CORPORATION, priority 2006, published 2009).
# Key:
# cell migration = settings: comparison with the DHA-derived oxylipin
Compound,secretion of the pro-inflammatory cytokine IL-1β (IL-1β),reduction of IL-1β secretion compared with DHA oxylipin derivative and indomethacin (IL-1β; comparison with DHA oxylipin derivative and indomethacin),potency for reduction in IL-1β secretion (IL-1β; comparison with the DHA oxylipin),potency for inhibiting cell migration (cell migration)
"10,17-dihydroxy DPAn-6",significantly reduced,"significantly larger than with that produced by either the DHA oxylipin derivative or the general anti-inflammatory agent, indomethacin",more potent than the DHA oxylipin,
CCCCCC(O)/C=C/C=C\C/C=C\C/C=C\C/C=C\CCC(=O)O (centres unmarked) [17-hydroxy DPAn-6],significantly reduced,,,more potent than the DHA-derived oxylipin
